Consider 24 compounds from patent US12415771B2, “Compounds for the treatment of neuromuscular disorders” (NMD PHARMA A/S, priority 2019, dated 2025).

The target of experiment [1] is T1, CIC-1 ion channel (Rattus norvegicus, UniProt P35524).
T1 construct: from tissue; host or cells: intact soleus muscle of 12-14 week old Wistar rats
T1 sequence (P35524 1-994): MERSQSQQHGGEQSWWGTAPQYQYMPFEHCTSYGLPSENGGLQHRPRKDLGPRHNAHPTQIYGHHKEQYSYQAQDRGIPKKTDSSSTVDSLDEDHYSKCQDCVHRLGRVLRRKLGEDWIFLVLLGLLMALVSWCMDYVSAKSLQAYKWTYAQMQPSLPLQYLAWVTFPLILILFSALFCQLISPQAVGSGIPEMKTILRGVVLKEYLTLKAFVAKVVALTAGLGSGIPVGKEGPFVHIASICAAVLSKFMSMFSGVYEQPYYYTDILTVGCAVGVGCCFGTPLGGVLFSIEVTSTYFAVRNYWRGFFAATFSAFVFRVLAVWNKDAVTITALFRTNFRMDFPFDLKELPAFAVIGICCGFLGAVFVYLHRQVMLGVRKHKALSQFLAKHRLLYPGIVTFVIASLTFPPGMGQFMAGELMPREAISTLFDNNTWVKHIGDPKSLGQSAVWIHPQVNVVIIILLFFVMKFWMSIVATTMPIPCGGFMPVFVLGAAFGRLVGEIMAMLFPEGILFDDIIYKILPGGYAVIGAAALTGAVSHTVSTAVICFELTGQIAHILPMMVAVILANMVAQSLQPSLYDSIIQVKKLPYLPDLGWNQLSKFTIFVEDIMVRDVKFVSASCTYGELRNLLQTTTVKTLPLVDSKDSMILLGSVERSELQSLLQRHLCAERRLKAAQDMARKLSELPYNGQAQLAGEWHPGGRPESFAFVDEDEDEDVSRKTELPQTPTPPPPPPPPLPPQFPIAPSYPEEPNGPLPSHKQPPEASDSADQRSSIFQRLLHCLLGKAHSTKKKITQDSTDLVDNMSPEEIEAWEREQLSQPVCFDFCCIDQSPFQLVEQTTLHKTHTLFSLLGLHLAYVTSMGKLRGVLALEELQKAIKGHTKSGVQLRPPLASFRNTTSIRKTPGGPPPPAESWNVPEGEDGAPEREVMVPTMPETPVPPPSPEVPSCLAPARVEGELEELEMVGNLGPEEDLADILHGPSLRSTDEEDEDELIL
Nature of the experiment: Electrophysiological measurement (Gm, three micro-electrode technique) of compound inhibition of CIC-1 in rat soleus muscle fibres. The format is cell-based. As to conditions: whole rat soleus muscle, Gm at four increasing concentrations, approx. 30° C., mean ± spread.

Experiment [2] concerns isolated rat soleus muscles. Nature of the experiment: Recovery of nerve-stimulated contractile force in isolated rat soleus nerve-muscle preparation exposed to tubocurarine. As to conditions: for activation at 50 µM: 40 min, read-out: Point increase (%) of initial force that was restored. The protocol: Recovery of force is quantified as the percentage of the force prior to tubocurarine that is recovered by the compound.
The current disclosure relates to compounds that inhibit CIC-1 ion channels and increase muscle excitability and thereby improve muscle function in clinical conditions where muscle activation is failing. Such conditions result in loss of contractile function of skeletal muscle, weakness and excessive fatigue. In this series of experiments the compounds were tested for their ability to restore contractile function of isolated rat muscle when the neuromuscular transmission had been compromised akin to neuromuscular disorders.
Experimentally, soleus muscles from 4-5 wk old rats were isolated with the motor nerve remaining attached. The nerve-muscle preparations were mounted in experimental setups that enabled electrical stimulation of the motor nerve. Stimulation of the motor nerve led to activation of the muscle fibres and ensuing force production that was recorded.
After mounting the nerve-muscle preparation in the experimental setup, the contractile function of the muscle was initially assessed under the control conditions (FIG. 2A). […] The experimental condition mimics the failing neuromuscular transmission in a range of neuromuscular disorders. After addition of tubocurarine the contractile force declined over the next 90 mins to 10-50% of the control force. 50 μM of the test compound was then added and the contractile force recovered despite the continued presence of tubocurarine. To quantify the ability of the compound to restore force the percentage of the initial force that was restored was determined after 40 mins of compound exposure (FIG. 2B) and the point increase is reported in Table 3.

The subject of experiment [3] is female Lewis rats. In words: In situ isometric hindlimb force in anaesthetised rats under partial neuromuscular block by Cisatracurium. The format is in vivo. The settings on record: Rattus norvegicus, iv, 80 Hz stimulation, Cisatracurium block, read-out: increase in tetanic force. The protocol: Isometric hindlimb force was measured in 12-week old female Lewis rats in the presence and absence of compound.
Rats were placed under anesthesia with isoflurane (2-4%), intubated and subsequently connected to a micro ventilator (Microvent 1, Hallowell EMC, US). Two stimulation electrodes were inserted through the skin to stimulate the sciatic nerve. A small incision was made proximal to the ankle, to expose the Achilles tendon, which was tied by cotton string, and connected to a force transducer (Fort250, World Precision Instruments) with adjustable position (Vernier control). The Achilles tendon was then cut distal to the attached cotton string. The rat was placed on a heated pad, and to prevent movement artefacts from contraction of the ankle dorsiflexors, the foot was fixated by tape on a footplate.
Muscle contractile properties were assessed by applying an electrical current (under supramaximal voltage conditions) to the nerve and recording the force generated by the muscle. The muscle was stretched until maximal force was obtained, when assessed by 2 Hz stimulation. Isometric force was measured every 30 seconds at 12 Hz (Twitch), 10 pulses, and at every 5 minutes at 80 Hz (Tetanic) for 1 second (80 pulses). This stimulation pattern was employed throughout the experiment, expect in few cases where 80 Hz stimulation was replaced by 12 Hz (10 pulses). […] When the level of neuromuscular inhibition was stable, the test article was injected i.v. at the chosen concentration. The effect of test article was assessed on its ability to increase force generated from the stimulation pattern applied. The effect was assessed in the ability to increase force per se (tetanic, 80 Hz, stimulation), and the ratio between individual twitch peaks (12 Hz stimulation). The effect was monitored for at least 1 hour after injection of test article. In addition, the time from injection of test article to maximal effect on force (both twitch and tetanic) was noted and the time for the effect to disappear (return to baseline), if possible. When appropriate the infusion of neuromuscular blocking agent was ceased, with the stimulation pattern continued, and the return of force to control levels was monitored. Animals were sacrificed by cervical dislocation while still fully sedated.

[4] abbreviates: 50 μM test compound, after 40 mins exposure, 115 nM tubocurarine for 90 mins, rat soleus.

Like-named read-outs stand apart in the source and are kept apart here.

Broadly, the EC50 is the concentration giving half of the maximal effect. The low end stands for higher potency in that assay, the high end for lower potency in that assay. For `CCC(F)(F)c1cc(Br)ccc1OCC(=O)O` [Compound A-6, 2-[4-bromo-2-(1,1-difluoropropyl)phenoxy]acetic acid], a half-maximal response in experiment [1] (EC50) required 7500 ± 2900 nM. Besides, the activation at 50 µM in experiment [2] (setting [4]) was found to be 35%.
In turn, `CCC(F)(F)c1cc(Cl)c(F)cc1O[C@@H](CF)C(=O)O` [Compound A-41, (2R)-2-[4-chloro-2-(1,1-difluoropropyl)-5-fluorophenoxy]-3-fluoropropanoic acid] showed an EC50 in experiment [1] of 1100 ± 400 nM.
As to `C#CC[C@H](Oc1ccc(Br)cc1C(F)(F)CC)C(=O)O` [Compound A-18, (2S)-2-[4-bromo-2-(1,1-difluoropropyl)phenoxy]pent-4-ynoic acid], the EC50 in experiment [1] was 4800 ± 1100 nM. Further, in experiment [2] (setting [4]), the activation at 50 µM came to 31%.
As for `CCC(F)(F)c1cc(F)c(F)cc1O[C@@H](CF)C(=O)O` [Compound A-54, (2R)-2-[2-(1,1-difluoropropyl)-4,5-difluorophenoxy]-3-fluoropropanoic acid], in experiment [2] (setting [4]), the activation at 50 µM was 36%.
On the same count and under the same terms, next, `CC[C@H](Oc1cc(F)c(Cl)cc1C(F)(F)CC)C(=O)O` [Compound A-49, (2S)-2-[4-chloro-2-(1,1-difluoropropyl)-5-fluorophenoxy]butanoic acid]: 24%.
Compound `CCC(F)(F)c1cc(Cl)c(F)cc1OCC(=O)O` [Compound A-39, 2-[4-chloro-2-(1,1-difluoropropyl)-5-fluorophenoxy]acetic acid] showed an EC50 in experiment [1] of 7900 ± 3100 nM. Also, the activation at 50 µM in experiment [2] (Rattus norvegicus) is 37%.
In turn, `CC(F)(F)c1cc(Br)ccc1O[C@@H](CF)C(=O)O` [Compound A-16, (2R)-2-[4-bromo-2-(1,1-difluoroethyl)phenoxy]-3-fluoropropanoic acid] yielded an EC50 in experiment [1] of 3200 ± 800 nM. Further, the change in vivo at 22.9 mg/kg in experiment [3] (22.9 mg/kg i.v.) was determined as 46%.
In turn, `CC[C@H](Oc1cc(F)c(Br)cc1C(F)(F)CC)C(=O)O` [Compound A-48, (2S)-2-[4-bromo-2-(1,1-difluoropropyl)-5-fluorophenoxy]butanoic acid] returned an EC50 in experiment [1] of 2000 nM.
Regarding `CCC(F)(F)c1cc(Br)ccc1O[C@@H](CCl)C(=O)O` [Compound A-17, (2R)-2-[4-bromo-2-(1,1-difluoropropyl)phenoxy]-3-chloropropanoic acid], the activation at 50 µM in experiment [2] (setting [4]) came out at 48%.
`CCC(F)(F)c1cc(Cl)c(Cl)cc1O[C@@H](C)C(=O)O` [Compound A-42, (2S)-2-[4,5-dichloro-2-(1,1-difluoropropyl)phenoxy]propanoic acid]: the EC50 in experiment [1] was found to be 2500 ± 300 nM. Further, in experiment [2] (Rattus norvegicus), the activation at 50 µM stood at 30%.
As for “(2S)-2-[4-bromo-2-(1,1-difluoropropyl)phenoxy](2-^2H)propanoic acid [Compound A-21]”, in experiment [1], the EC50 was found to be 2600 nM. For the same compound, the “Point increase (%) of initial force that was restored” value in experiment [2] (setting [4]) stood at 44%.
In the case of “(2S)-2-[4-bromo-2-(1,1-difluoropropyl)(3,5,6-^2H3)phenoxy]propanoic acid [Compound A-30]”, the “Point increase (%) of initial force that was restored” value in experiment [2] (setting [4]) was found to be 44%.
In the case of `CCC(F)(F)c1cc(I)ccc1O[C@@H](C)C(=O)O` [Compound A-20, (2S)-2-[2-(1,1-difluoropropyl)-4-iodophenoxy]propanoic acid], the response in experiment [1] was half-maximal at 1900 nM (EC50). Besides, the activation at 50 µM in experiment [2] (setting [4]) was found to be 44%.
Turning to `CCC(F)(F)c1cc(Br)ccc1O[C@@H](CF)C(=O)O` [Compound A-11, (2R)-2-[4-bromo-2-(1,1-difluoropropyl)phenoxy]-3-fluoropropanoic acid], the concentration giving a half-maximal response (EC50) in experiment [1] stood at 1600 ± 200 nM. Moreover, in experiment [3] (17.6 mg/kg i.v.), the change in vivo at 17.6 mg/kg amounted to 44%.
For the compound `C=Cc1ccc(O[C@@H](C)C(=O)O)c(C(F)(F)CC)c1` [Compound A-35, (2S)-2-[2-(1,1-difluoropropyl)-4-ethenylphenoxy]propanoic acid], the activation at 50 µM in experiment [2] (setting [4]) is 20%.
Same read-out and setting: next, `C#CC[C@H](Oc1ccc(Cl)cc1C(C)(F)F)C(=O)O` [Compound A-19, (2S)-2-[4-chloro-2-(1,1-difluoroethyl)phenoxy]pent-4-ynoic acid]: 27%.
The same measure, in the same setting: next, `CCC(F)(F)c1cc([N+](=O)[O-])ccc1O[C@@H](C)C(=O)O` [Compound A-51, (2S)-2-[2-(1,1-difluoropropyl)-4-nitrophenoxy]propanoic acid]: 37%; `CC(F)(F)c1cc(Cl)c(Cl)cc1O[C@@H](CF)C(=O)O` [Compound A-44, (2R)-2-[4,5-dichloro-2-(1,1-difluoroethyl)phenoxy]-3-fluoropropanoic acid]: 24%.
As to `CC(C)C(F)(F)c1cc(Br)ccc1OCC(=O)O` [Compound A-38, 2-[4-bromo-2-(1,1-difluoro-2-methylpropyl)phenoxy]acetic acid], in experiment [1], the EC50 came out at 7400 nM.
For the compound `C[C@H](Oc1ccc(Br)cc1C(C)(F)F)C(=O)O` [Compound A-4, (2S)-2-[4-bromo-2-(1,1-difluoroethyl)phenoxy]propanoic acid], the change in vivo at 21.6 mg/kg in experiment [3] (21.6 mg/kg i.v.) came to 34%. Besides, the activation at 50 µM in experiment [2] (setting [4]) stood at 34%.
In turn, `CCC(F)(F)c1cc(Br)c(F)cc1O[C@@H](C)C(=O)O` [Compound A-24, (2S)-2-[4-bromo-2-(1,1-difluoropropyl)-5-fluorophenoxy]propanoic acid] registered an EC50 in experiment [1] of 900 ± 200 nM.
`CCC(F)(F)c1cc(Br)c(F)cc1O[C@@H](CF)C(=O)O` [Compound A-34, (2R)-2-[4-bromo-2-(1,1-difluoropropyl)-5-fluorophenoxy]-3-fluoropropanoic acid] showed a half-maximal effective concentration (EC50) in experiment [1] of 1100 ± 200 nM.
In experiment [1], `CC(F)(F)c1cc(Br)c(F)cc1O[C@@H](CF)C(=O)O` [Compound A-43, (2R)-2-[4-bromo-2-(1,1-difluoroethyl)-5-fluorophenoxy]-3-fluoropropanoic acid] yielded an EC50 of 2900 ± 900 nM.
With `C=Cc1cc(C(F)(F)CC)c(O[C@@H](C)C(=O)O)cc1F` [Compound A-47, (2S)-2-[2-(1,1-difluoropropyl)-4-ethenyl-5-fluorophenoxy]propanoic acid], the activation at 50 µM in experiment [2] (setting [4]) was 31%.
